From patent US20250320206A1, “STAT6 DEGRADERS” (Gilead Sciences, Inc., priority 2024, published 2025)

Columns and labels:
STAT6 = target: T1, STAT6 (Homo sapiens, UniProt P42226); test: Stat6 Degrader Assay (HiBiT based, HeLa LgBiT clone 4.14); format: cell-based; conditions: HeLa LgBiT clone 4.14 HiBiT-STAT6, 4-24 h incubation; values given for compounds with >80% Emax; geometric mean; read-out: STAT6 degradation DC50
T1 construct: These cells express endogenous STAT6; host or cells: HeLa LgBiT clone 4.14
T1 sequence (P42226 1-847): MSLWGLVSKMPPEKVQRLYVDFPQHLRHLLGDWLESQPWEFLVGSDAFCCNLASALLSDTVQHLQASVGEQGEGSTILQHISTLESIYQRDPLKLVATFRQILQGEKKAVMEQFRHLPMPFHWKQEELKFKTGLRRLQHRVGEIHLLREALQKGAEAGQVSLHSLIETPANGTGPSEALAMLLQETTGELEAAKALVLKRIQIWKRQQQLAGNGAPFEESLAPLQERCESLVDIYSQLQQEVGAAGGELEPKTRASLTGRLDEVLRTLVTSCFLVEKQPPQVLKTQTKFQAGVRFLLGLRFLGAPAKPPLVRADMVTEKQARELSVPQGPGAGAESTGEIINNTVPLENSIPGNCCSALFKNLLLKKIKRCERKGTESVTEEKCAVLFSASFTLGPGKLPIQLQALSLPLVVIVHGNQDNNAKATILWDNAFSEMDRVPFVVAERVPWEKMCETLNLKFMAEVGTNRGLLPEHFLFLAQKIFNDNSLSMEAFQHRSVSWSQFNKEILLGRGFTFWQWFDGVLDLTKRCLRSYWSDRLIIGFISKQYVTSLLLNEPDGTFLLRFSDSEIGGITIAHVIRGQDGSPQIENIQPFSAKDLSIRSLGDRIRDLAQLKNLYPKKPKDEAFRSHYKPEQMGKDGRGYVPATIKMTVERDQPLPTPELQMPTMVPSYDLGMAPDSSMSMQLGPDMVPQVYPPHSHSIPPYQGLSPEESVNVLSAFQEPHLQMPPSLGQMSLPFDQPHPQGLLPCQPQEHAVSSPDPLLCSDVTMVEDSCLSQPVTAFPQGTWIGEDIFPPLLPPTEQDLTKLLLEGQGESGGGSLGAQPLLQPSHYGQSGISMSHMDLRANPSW
How it was run: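 Luminescence from HiBiT-STAT6 complementing stably expressed LgBiT in HeLa clone 4.14 reports remaining STAT6 protein. Cells (5000/well) exposed to compound for 4-24 h at 37° C; read 0.5 h after Nano-Glo addition. 100% degradation window set with 50 μM terfenadine; percent degradation plotted against concentration.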

[1] = tested on: Eotaxin-3 release in human whole blood stimulated with IL-4; test: Human Whole Blood Eotaxin-3 Assay (IL-4 stimulated eotaxin-3 release); format: cell-based; conditions: IL-4 stimulation, 48 h, values given for compounds with >80% Emax, geometric mean
How it was run: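 Eotaxin-3 (CCL26) release measured by MSD kit in plasma supernatant after 48 h IL-4 stimulation ([…]) of human whole blood. Compounds added in triplicate 4-fold dilutions 2 h before stimulation; 0.5% DMSO final, 37° C, 5% CO2.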

DC50 (STAT6) | EC50 [1] | Compound
0.6 nM | 1 nM | Cc1cc(C(=O)N2CCC(CN3CCN(Cc4cc5c(cc4F)n([C@H]4CCC(=O)NC4=O)c(=O)n5C)CC3)CC2)cc(F)c1C1=CCN([C@@H](C)c2cc3c(-n4ccc5c(c4=O)CCN5)ccnc3n2C)CC1 (single isomer, unassigned) [Example 3u75]
3.2 nM | 1.3 nM | Cc1cc(C(=O)N2CCC(CN3CCN(Cc4cc5c(cc4F)n([C@@H]4CCC(=O)NC4=O)c(=O)n5C)CC3)CC2)cc(F)c1C1=CCN([C@@H](C)c2cc3c(-n4ccc5c(c4=O)CCN5)ccnc3n2C)CC1 (single isomer, unassigned) [Example 3u76]
9.8 nM | 45.9 nM | CNc1cc(=O)n(-c2ccnc3c2cc(CN2CC=C(c4c(F)cc(C(=O)N5CCC(CN6CCN(Cc7ccc8c(c7)C(C)(C)C(=O)N8[C@H]7CCC(=O)NC7=O)C[C@@H]6C)CC5)cc4F)CC2)n3C)cc1F (single isomer, unassigned) [Example 3u78]
15.4 nM | 107 nM | CNc1cc(=O)n(-c2ccnc3c2cc(CN2CC=C(c4c(F)cc(C(=O)N5CCC(CN6CCN(Cc7ccc8c(c7)C(C)(C)C(=O)N8[C@@H]7CCC(=O)NC7=O)C[C@@H]6C)CC5)cc4F)CC2)n3C)cc1F (single isomer, unassigned) [Example 3u79]
1.1 nM | 1.1 nM | CNc1ccn(-c2ccnc3c2cc([C@H](C)N2CCC(c4c(F)cc(C(=O)N5CCC(CN6CCN(Cc7ccc8c(c7)C(C)(C)C(=O)N8[C@@H]7CCC(=O)NC7=O)C[C@@H]6C)CC5)cc4F)CC2)n3C)c(=O)c1 (single isomer, unassigned) [Example 3u82]
3.3 nM | 12.9 nM | CNc1cc(=O)n(-c2ccnc3c2cc([C@H](C)N2CC=C(c4c(C)cc(C(=O)N5CCC(CN6CCN(Cc7ccc8c(c7)C(C)(C)C(=O)N8[C@H]7CCC(=O)NC7=O)CC6)CC5)cc4F)CC2)n3C)cc1F (single isomer, unassigned) [Example 3u88]
4.1 nM | 43.7 nM | CNc1cc(=O)n(-c2ccnc3c2cc([C@H](C)N2CC=C(c4c(C)cc(C(=O)N5CCC(CN6CCN(Cc7ccc8c(c7)C(C)(C)C(=O)N8[C@@H]7CCC(=O)NC7=O)CC6)CC5)cc4F)CC2)n3C)cc1F (single isomer, unassigned) [Example 3u89]
0.6 nM | 1.4 nM | CNc1cc(=O)n(-c2ccnc3c2cc([C@H](C)N2CC=C(c4c(C)cc(C(=O)N5CCC(CN6CCN(Cc7ccc8c(c7)n(C)c(=O)n8[C@H]7CCC(=O)NC7=O)C[C@@H]6C)CC5)cc4F)CC2)n3C)cc1F (single isomer, unassigned) [Example 3u91]
0.4 nM | 1.8 nM | CNc1cc(=O)n(-c2ccnc3c2cc([C@H](C)N2CC=C(c4c(C)cc(C(=O)N5CCC(CN6CCN(Cc7ccc8c(c7)n(C)c(=O)n8[C@@H]7CCC(=O)NC7=O)C[C@@H]6C)CC5)cc4F)CC2)n3C)cc1F (single isomer, unassigned) [Example 3u92]
10.2 nM | 23.8 nM | CNc1cc(=O)n(-c2ccnc3c2cc(CN2CCC(c4c(F)cc(C(=O)N5CCC(CN6CCN(Cc7cc8c(cc7F)N([C@H]7CCC(=O)NC7=O)C(=O)C87CC7)CC6)CC5)cc4F)CC2)n3C)cc1F (single isomer, unassigned) [Example 3u94]
18.6 nM | 12.4 nM | CNc1cc(=O)n(-c2ccnc3c2cc(CN2CCC(c4c(F)cc(C(=O)N5CCC(CN6CCN(Cc7cc8c(cc7F)N([C@@H]7CCC(=O)NC7=O)C(=O)C87CC7)CC6)CC5)cc4F)CC2)n3C)cc1F (single isomer, unassigned) [Example 3u95]
1.1 nM | 1.7 nM | CNc1cc(=O)n(-c2ccnc3c2cc([C@H](C)N2CC=C(c4c(C)cc(C(=O)N5CCC(CN6CCN(Cc7ccc8c(c7)C7(CC7)C(=O)N8[C@H]7CCC(=O)NC7=O)C[C@@H]6C)CC5)cc4F)CC2)n3C)cc1F (single isomer, unassigned) [Example 3u99]
1.7 nM | 3.1 nM | CNc1cc(=O)n(-c2ccnc3c2cc([C@H](C)N2CC=C(c4c(C)cc(C(=O)N5CCC(CN6CCN(Cc7ccc8c(c7)C7(CC7)C(=O)N8[C@@H]7CCC(=O)NC7=O)C[C@@H]6C)CC5)cc4F)CC2)n3C)cc1F (single isomer, unassigned) [Example 3u100]
2.5 nM | 2.8 nM | C[C@H]1CN(Cc2ccc3c(c2)n(C2CC2)c(=O)n3[C@H]2CCC(=O)NC2=O)CCN1CC1CCN(C(=O)c2cc(F)c(C3CCN(Cc4cc5c(-n6ccc7c(c6=O)CCN7)ccnc5n4C)CC3)c(F)c2)CC1 (single isomer, unassigned) [Example 3u107]
3.4 nM | 4.1 nM | C[C@H]1CN(Cc2ccc3c(c2)n(C2CC2)c(=O)n3[C@@H]2CCC(=O)NC2=O)CCN1CC1CCN(C(=O)c2cc(F)c(C3CCN(Cc4cc5c(-n6ccc7c(c6=O)CCN7)ccnc5n4C)CC3)c(F)c2)CC1 (single isomer, unassigned) [Example 3u108]
2.1 nM | 2.2 nM | CNc1cc(=O)n(-c2ccnc3c2cc([C@H](C)N2CC=C(c4c(C)cc(C(=O)N5CCC(CN6CCN(Cc7ccc8c(c7)n(C7CC7)c(=O)n8[C@H]7CCC(=O)NC7=O)C[C@@H]6C)CC5)cc4F)CC2)n3C)cc1F (single isomer, unassigned) [Example 3u119]
1 nM | 3.7 nM | CNc1cc(=O)n(-c2ccnc3c2cc([C@H](C)N2CC=C(c4c(C)cc(C(=O)N5CCC(CN6CCN(Cc7ccc8c(c7)n(C7CC7)c(=O)n8[C@@H]7CCC(=O)NC7=O)C[C@@H]6C)CC5)cc4F)CC2)n3C)cc1F (single isomer, unassigned) [Example 3u120]
1.3 nM | 1.8 nM | CNc1cc(=O)n(-c2ccnc3c2cc([C@H](C)N2CC=C(c4c(F)cc(C(=O)N5CCC(CN6CCN(Cc7ccc8c(c7)n(C7CC7)c(=O)n8[C@@H]7CCC(=O)NC7=O)C[C@@H]6C)CC5)cc4F)CC2)n3C)cc1F (single isomer, unassigned) [Example 3u130]
4.1 nM | 8.7 nM | CNc1cc(=O)n(-c2ccnc3c2cc([C@H](C)N2CC=C(c4c(C)cc(C(=O)N5CCC(CN6CCN(Cc7cc8c(cc7F)N([C@@H]7CCC(=O)NC7=O)C(=O)C87CC7)CC6)CC5)cc4F)CC2)n3C)cc1F (single isomer, unassigned) [Example 3u153]
6.4 nM | 10.1 nM | CNc1cc(=O)n(-c2ccnc3c2cc([C@H](C)N2CC=C(c4c(C)cc(C(=O)N5CCC(CN6CCN(Cc7cc8c(cc7F)N([C@H]7CCC(=O)NC7=O)C(=O)C87CC7)CC6)CC5)cc4F)CC2)n3C)cc1F (single isomer, unassigned) [Example 3u154]
0.3 nM | 0.4 nM | CNc1ccn(-c2ccnc3c2cc([C@H](C)N2CC=C(c4c(C)cc(C(=O)N5CCC(CN6CCN(Cc7ccc8c(c7)n(C)c(=O)n8[C@@H]7CCC(=O)NC7=O)CC6)CC5)cc4F)CC2)n3C)c(=O)c1 (single isomer, unassigned) [Example 3u157]
12.8 nM | 52.6 nM | CNc1ccn(-c2ccnc3c2cc(CN2CCC(c4c(C)cc(C(=O)N5CCC(CN6CCN(Cc7ccc8c(c7)n(C)c(=O)n8[C@@H]7CCC(=O)NC7=O)CC6)CC5)cc4F)CC2)n3C)c(=O)c1 (single isomer, unassigned) [Example 3u159]
10.9 nM | 27.5 nM | CNc1ccn(-c2ccnc3c2cc(CN2CCC(c4c(C)cc(C(=O)N5CCC(CN6CCN(Cc7ccc8c(c7)n(C)c(=O)n8[C@H]7CCC(=O)NC7=O)CC6)CC5)cc4F)CC2)n3C)c(=O)c1 (single isomer, unassigned) [Example 3u160]
3.1 nM | 1.7 nM | CNc1ccn(-c2ccnc3c2cc(CN2CC=C(c4c(C)cc(C(=O)N5CCC(CN6CCN(Cc7ccc8c(c7)n(C)c(=O)n8[C@H]7CCC(=O)NC7=O)CC6)CC5)cc4F)CC2)n3C)c(=O)c1 (single isomer, unassigned) [Example 3u161]
3.3 nM | 2.3 nM | CNc1ccn(-c2ccnc3c2cc(CN2CC=C(c4c(C)cc(C(=O)N5CCC(CN6CCN(Cc7ccc8c(c7)n(C)c(=O)n8[C@@H]7CCC(=O)NC7=O)CC6)CC5)cc4F)CC2)n3C)c(=O)c1 (single isomer, unassigned) [Example 3u162]
